Results reported in patent publication US11117926B2, “Cholane derivatives for use in the treatment and/or prevention of FXR and TGR5/GPBAR1 mediated diseases” (BAR PHARMACEUTICALS S.R.L., priority 2014, dated 2021).
Counter-ions that a name gives are not always drawn.

What was measured:
FXR = molecular target: T1, FXR (Homo sapiens, UniProt Q96RI1); assay: FXR mediated transactivation (luciferase reporter) in transfected HepG2 cells; assay type: cell-based; conditions: each compound at 10 microM, transactivation activity of CDCA on FXR = 100%
T1 construct: expressed in transfected cells; host or cells: HepG2
T1 sequence (Q96RI1 1-486): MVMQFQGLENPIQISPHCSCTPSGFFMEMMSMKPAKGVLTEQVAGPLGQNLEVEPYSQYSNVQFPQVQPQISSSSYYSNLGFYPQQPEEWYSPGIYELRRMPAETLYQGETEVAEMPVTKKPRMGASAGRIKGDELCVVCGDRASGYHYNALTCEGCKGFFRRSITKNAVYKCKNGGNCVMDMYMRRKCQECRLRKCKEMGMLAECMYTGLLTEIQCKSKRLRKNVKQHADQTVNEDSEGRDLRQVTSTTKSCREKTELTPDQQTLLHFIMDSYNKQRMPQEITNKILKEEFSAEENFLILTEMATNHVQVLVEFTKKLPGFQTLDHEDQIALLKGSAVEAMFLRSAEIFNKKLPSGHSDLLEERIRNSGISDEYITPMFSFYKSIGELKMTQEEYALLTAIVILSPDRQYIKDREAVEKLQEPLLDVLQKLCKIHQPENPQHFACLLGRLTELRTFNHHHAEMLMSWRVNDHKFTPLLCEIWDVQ
T1 sequence (P19793 1-462 partner): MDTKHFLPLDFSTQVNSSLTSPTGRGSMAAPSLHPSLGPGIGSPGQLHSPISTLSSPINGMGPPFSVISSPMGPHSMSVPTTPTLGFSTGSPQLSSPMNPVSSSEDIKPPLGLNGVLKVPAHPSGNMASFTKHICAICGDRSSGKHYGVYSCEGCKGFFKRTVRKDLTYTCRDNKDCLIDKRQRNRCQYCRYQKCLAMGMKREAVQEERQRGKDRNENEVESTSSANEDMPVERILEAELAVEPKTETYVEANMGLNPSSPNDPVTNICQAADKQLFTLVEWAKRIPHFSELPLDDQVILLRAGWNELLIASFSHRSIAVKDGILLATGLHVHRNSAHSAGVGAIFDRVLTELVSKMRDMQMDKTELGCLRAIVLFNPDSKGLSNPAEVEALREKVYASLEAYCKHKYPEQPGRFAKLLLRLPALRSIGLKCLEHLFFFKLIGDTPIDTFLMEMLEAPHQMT
Description: (§1) Each compound was tested at the concentration of 10 microM and transactivation activity of CDCA on FXR and TLCA on CRE (i.e. TGR5/GPBAR1) was considered equal to 100%.
(§2) Biological Activities. Activity of selected compounds was tested in vitro using a whole cell model transfected with a reporter genes to establish selectivity of compounds shown in table 1 toward FXR and TGR5/GPBAR1 in comparison with chenodeoxycholic acid (CDCA) and TLCA. CDCA is a primary bile acid that functions as an endogenous ligand for FXR, while TLCA is a physiological ligand for TGR5/GPBAR1. In this assay, HepG2 cells (a liver-derived cell line) were cultured at 37° C. in minimum essential medium with Earl's salts containing 10% fetal bovine serum (FBS), 1% L-glutamine, and 1% penicillin/streptomycin. […] The transfection experiments were performed using Fugene HD according to manufactured specifications. Cells were plated in a 24-well plate at 5×10^4 cells/well. For FXR mediated transactivation, HepG2 cells were transfected with 100 ng of pSG5-FXR, 100 ng of pSG5-RXR, 100 ng of pGL4.70 a vector encoding the human Renilla gene and 250 ng of the reporter vector p(hsp27)-TK-LUC containing the FXR response element IR1 cloned from the promoter of heat shock protein 27 (hsp27).
(§3) At 24 h post-transfection, cells were stimulated for 18 h with 10 μM TLCA as a control agent or putative GPBAR1 agonists as the same concentration. After treatments, cells were lysed in 100 μL of lysis buffer (25 mM Tris-phosphate, pH 7.8; 2 mM DTT; 10% glycerol; 1% Triton X-100), and 20 μL of cellular lysate was assayed for luciferase activity using the luciferase assay system. Luminescence was measured using Glomax 20/20 luminometer. Luciferase activities were normalized against Renilla activities. Antagonism against FXR of GPBAR1/TGR5 was measured as percent of activity in transactivation assay suing activity of TLCA as example of agonism.

human GPBAR1 = molecular target: T2, human GPBAR1 (Homo sapiens, UniProt Q8TDU6); assay: GPBAR1 mediated transactivation (CRE luciferase reporter) in transfected HEK-293T cells; assay type: cell-based; conditions: each compound at 10 microM, transactivation activity of TLCA on CRE = 100%
T2 construct: expressed in transfected cells; host or cells: HEK-293T
T2 sequence (Q8TDU6 1-330): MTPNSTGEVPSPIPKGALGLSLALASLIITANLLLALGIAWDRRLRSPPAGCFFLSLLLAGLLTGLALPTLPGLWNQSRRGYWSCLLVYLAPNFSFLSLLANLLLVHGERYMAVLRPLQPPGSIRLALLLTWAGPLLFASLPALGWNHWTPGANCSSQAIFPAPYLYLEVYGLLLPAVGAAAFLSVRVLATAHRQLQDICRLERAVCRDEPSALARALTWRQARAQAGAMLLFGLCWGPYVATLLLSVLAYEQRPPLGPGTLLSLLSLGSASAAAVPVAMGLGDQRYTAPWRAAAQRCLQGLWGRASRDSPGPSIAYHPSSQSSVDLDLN
Description: as §1, §2, §3

SMILES | FXR (% of activity in comparison to 10 μM CDCA) (FXR) | GPBAR1 (% of activity in comparison to 10 μM TLCA) (human GPBAR1)
CC[C@@H]1[C@H](O)[C@@H]2[C@H](CC[C@]3(C)[C@@H]([C@H](C)CCCO)CC[C@@H]23)[C@@]2(C)CC[C@H](O)C[C@@H]12 [BAR708, 6β-ethyl-3β,7β-dihydroxy-5β-cholan-24-ol] | 6.4 ± 0.8% | 57.6 ± 4.6%
CC[C@H]1[C@@H](O)C2C3CC[C@H]([C@H](C)CCCCCOS(=O)(=O)O)[C@@]3(C)CCC2[C@@]2(C)CC[C@@H](O)C[C@@H]12 (stereo partly drawn) [BAR804, 6α-ethyl-3α, 7α-dihydroxy-25, 26-bishomo-5β-cholan-26-yl-26-sodium sulfate] | 196.5 ± 6.5% | 52.5 ± 3.5%
CC[C@@H]1[C@@H](O)[C@@H]2[C@H](CC[C@]3(C)[C@@H]([C@H](C)CCCO)CC[C@@H]23)[C@@]2(C)CCCC[C@@H]12 [BAR705, 6β-ethyl-7α-hydroxy-5β-cholan-24-ol] | 43.7 ± 3.9% | 67.0 ± 9.9%
CC[C@@H]1[C@H](O)C2C3CC[C@H]([C@H](C)CCO)[C@@]3(C)CCC2[C@@]2(C)CC[C@@H](O)C[C@@H]12 (stereo partly drawn) [BARn501, 6β-ethyl-3α, 7β-dihydroxy-24-nor-5β-cholan-23-ol] | 8.5 ± 1.4% | 83.1 ± 7.4%
CC[C@H]1[C@@H](O)[C@@H]2[C@H](CC[C@]3(C)[C@@H]([C@H](C)CCCOS(=O)(=O)[O-])CC[C@@H]23)[C@@]2(C)CCCC[C@@H]12.[Na+] [BAR701solf, 6α-ethyl-7α-hydroxy-5β-cholan-24-yl 24-sodium sulfate] | 229 ± 2.0% | 63.5 ± 0.5%
CC[C@@H]1[C@H](O)[C@@H]2[C@H](CC[C@]3(C)[C@@H]([C@H](C)CCCO)CC[C@@H]23)[C@@]2(C)CC[C@@H](O)C[C@@H]12 [BAR501, 6β-ethyl-3α,7β-dihydroxy-5β-cholan-24-ol] | 9.9 ± 0.1% | 64.5 ± 0.5%
CC[C@@H]1[C@@H](O)[C@@H]2[C@H](CC[C@]3(C)[C@@H]([C@H](C)CCCO)CC[C@@H]23)[C@@]2(C)CC[C@H](O)C[C@@H]12 [BAR709, 6β-ethyl-3β,7α-dihydroxy-5β-cholan-24-ol] | 33.7 ± 2.0% | 54.2 ± 0.3%
C[C@H](CCCOS(=O)(=O)O)[C@H]1CCC2C3C(CC[C@@]21C)[C@@]1(C)CCCC[C@H]1C[C@H]3O (stereo partly drawn) [BAR402, 7α-hydroxy-5β-cholan-24-yl-24-sodium sulfate] | 336.4 ± 20.8% | 28.0 ± 1.8%
CC[C@@H]1[C@H](O)[C@@H]2[C@H](CC[C@]3(C)[C@@H]([C@H](C)CCCO)CC[C@@H]23)[C@@]2(C)CCCC[C@@H]12 [BAR702, 6β-ethyl-7β-hydroxy-5β-cholan-24-ol] | 11.7 ± 0.8% | 35.8 ± 1.2%
CC[C@H]1[C@@H](O)[C@@H]2[C@H](CC[C@]3(C)[C@@H]([C@H](C)CCCO)CC[C@@H]23)[C@@]2(C)CC[C@H](O)C[C@@H]12 [BAR706, 6α-ethyl-3β,7α-dihydroxy-5β-cholan-24-ol] | 153 ± 9.0% | 66.05 ± 7.6%
CC[C@H]1[C@@H](O)C2C3CC[C@H]([C@H](C)CCO)[C@@]3(C)CCC2[C@@]2(C)CC[C@H](O)C[C@@H]12 (stereo partly drawn) [BARn706, 6α-ethyl-3β,7α-dihydroxy-24-nor-5β-cholan-23-ol] | 197.5 ± 4.5% | 69.5 ± 6.5%
CC[C@H]1[C@@H](O)C2C3CC[C@H]([C@H](C)CCOS(=O)(=O)O)[C@@]3(C)CCC2[C@@]2(C)CC[C@H](O)C[C@@H]12 (stereo partly drawn) [BARn706solf, 6α-ethyl-3β,7α-dihydroxy-24-nor-5β-cholan-23-yl 23-sodium sulfate] |  | 71.5 ± 0.5%
